Results on two compounds are retold here after patent US8501806B2, “Methods for preventing or reducing colon carcinogenesis” (Nogra Pharma Limited, priority 2008, dated 2013).

In test [1] the test system is established CT26-derived tumors. In words: Growth of established CT26 xenografts. The following applies: subcutaneously 80 mg/kg mouse/day for 2 weeks from day 14. It is filed as in vivo, Balb/c mice. The procedure:
CT26 cells (1×10^5 cells in 300 μl PBS 1×) were injected subcutaneously into the flank of Balb/c mice, whose fur was shaved and depilated. Five groups of 10 mice each were implanted with CT26. The first group received daily subcutaneously 300 μl PBS (control), the remaining groups received daily subcutaneously compound 14 at a final dose of 1, 4, 8, or 12 mg/kg/mouse dissolved in 300 μl PBS. Both compound 14 and PBS were administered starting on day 3. Further experimentation was performed to assess whether compound 14 had anti-cancer activity when administered systemically. […] Mice were monitored over the time for weight loss. After 2 weeks, mice were sacrificed, tumors were photographed, then excised and their mass calculated according to the following formula: ½×(short diameter)×(long diameter)×(height). Total extracts were prepared from xenografts and analyzed for cyclin D1 protein content by Western blotting using a commercially available antibody (Santa Cruz Biotechnology). […] After 2 weeks, mice with similar tumor size, determined by caliper measurements, were divided into three groups of 8 mice each. […] Mice were monitored over the time for weight loss. After 2 weeks, mice were sacrificed, tumors were photographed, then excised and their mass calculated as described above. […] Mice were monitored over the time and sacrificed at day 28.

Another test concerns HCT-116 cells. In words: CFSE cell proliferation assay, HCT-116 cells. Type of test: cell-based, human. As to conditions: equivalent concentrations; data not shown. The procedure:
All reagents used in Examples 1-3 were from Sigma-Aldrich (Milan, Italy) unless specified. Compounds were dissolved as a 25 mM stock solution in culture medium, and the pH of the solution was adjusted to 7.4, if necessary, with NaOH. The human CRC cell lines, HCT-116 and HT-29 (expressing either wild-type or mutated p53 respectively), were maintained in McCoy's 5A supplemented with 10% fetal bovine serum (FBS), 1% penicillin/streptomycin, and 50 μg/ml gentamycin. The murine CRC cell line, CT26, was maintained in RPMI 1640 medium supplemented with 10% FBS and 1% penicillin/streptomycin.
For cell growth assays, serum-starved HCT-116, HT-29, and CT26 cells were plated in appropriate complete medium at 2×10^5 cells/ml/well in 6-well culture dishes and allowed to adhere overnight. Cells were then labeled with carboxyfluorescein diacetate succinimidyl ester (CFSE) (Invitrogen, Milan Italy) at 37° C. according to the manufacturer's instruction. After 30 minutes, the medium was removed and fresh media containing 0.05% bovine serum albumin (BSA), and increasing doses of 5-ASA or disclosed compounds were added. After 24 hours, cells were collected, washed twice with PBS 1×, and then incubated with 5 μg/ml of PI for 15 minutes, at 4° C. in the dark. CFSE and/or PI-positive cells were determined by flow cytometry (Becton Dickinson, FACSCalibur, Milan, Italy). To determine whether the negative effect of compound 14 (2-methoxy-5-amino-N-hydroxybenzamide) on proliferation was reversible, cells were cultured in the presence or absence of compound 14 (1.5 and 3 mM) for 24 hours (1st culture). Afterwards, cells were either left untreated or extensively washed and cultured with medium in the absence of compound 14 for additional 24 hours (2nd culture). The percentage of proliferating cells was then evaluated by flow cytometry.

For `Nc1ccc(O)c(C(=O)O)c1` [5-ASA, 5-amino salicylic acid, reference compound], in test [1], the “tumor size of established CT26-derived tumors vs PBS” value is recorded as “not 5-ASA significantly reduced”. For `OC[C@@H](O)[C@@H](O)[C@H](O)[C@H](O)CO` [mannitol, reference compound], the “effect on cell proliferation (osmotic control)” value in the test on HCT-116 cells is given as “No effect”.
